# Test results from patent US10363251B2, “(+)-morphinans as antagonists of toll-like receptor 9 and therapeutic uses thereof” (Mallinckrodt LLC, priority 2009, dated 2019).
# Columns and labels:
# [1] = system: Experimental Autoimmune Encephalomyelitis (EAE); conditions: bid for 20 days; Cmpd II-98 5 mg/kg sc, others 20 mg/kg sc, Prednisolone 4.5 mg/kg ip; vs vehicle control
# [2] = system: APAP-induced liver toxicity; experiment: Acetaminophen (APAP)-induced hepatotoxicity model; format: in vivo, mouse; conditions: APAP 500 mg/Kg ip, 12 hours post-APAP; for Protection from APAP-induced toxicity: test doses and timing per Table 6; for Liver histology scores (necrosis and hemorrhage) / Serum alanine transaminase (ALT) levels: vs APAP alone
# Procedure: For this, APAP-induced liver toxicity was induced in male C57BL/6 mice aged between 8-10 weeks by a single intraperitoneal (ip) injection of APAP in PBS at a dose of 500 mg/Kg (Imaeda et al. (2009) J. Clin. Invest. 119(2):305-314). The ability of (+)-morphinans to reduce liver toxicity was tested in the following groups:
# The (+)-morphinan (or PBS) was either administered as a single subcutaneous (sc) or ip injection concurrent with the APAP injection or one hour prior to the APAP injection.
# The mice were sacrificed 12 hours post-APAP treatment. Liver samples were stained with H&E and analyzed for signs of necrosis and hemorrhage. Histology scores were assigned using the standard rating scale. The levels of serum alanine transaminase (ALT) were also measured in each animal using a standard assay.
# TLR9 = target: T1, TLR9 (Homo sapiens, UniProt Q9NR96); experiment: TLR9 screening of (+)-morphinan library, SEAP reporter in HEK293 cells expressing TLR9; format: cell-based; conditions: activator ODN2006; for OD 650 nm (mean ± sd): control (no activator) 0.14, activator 1.42 OD
# T1 construct: expressed in transfected cells; host or cells: HEK293
# T1 sequence (Q9NR96 26-1032): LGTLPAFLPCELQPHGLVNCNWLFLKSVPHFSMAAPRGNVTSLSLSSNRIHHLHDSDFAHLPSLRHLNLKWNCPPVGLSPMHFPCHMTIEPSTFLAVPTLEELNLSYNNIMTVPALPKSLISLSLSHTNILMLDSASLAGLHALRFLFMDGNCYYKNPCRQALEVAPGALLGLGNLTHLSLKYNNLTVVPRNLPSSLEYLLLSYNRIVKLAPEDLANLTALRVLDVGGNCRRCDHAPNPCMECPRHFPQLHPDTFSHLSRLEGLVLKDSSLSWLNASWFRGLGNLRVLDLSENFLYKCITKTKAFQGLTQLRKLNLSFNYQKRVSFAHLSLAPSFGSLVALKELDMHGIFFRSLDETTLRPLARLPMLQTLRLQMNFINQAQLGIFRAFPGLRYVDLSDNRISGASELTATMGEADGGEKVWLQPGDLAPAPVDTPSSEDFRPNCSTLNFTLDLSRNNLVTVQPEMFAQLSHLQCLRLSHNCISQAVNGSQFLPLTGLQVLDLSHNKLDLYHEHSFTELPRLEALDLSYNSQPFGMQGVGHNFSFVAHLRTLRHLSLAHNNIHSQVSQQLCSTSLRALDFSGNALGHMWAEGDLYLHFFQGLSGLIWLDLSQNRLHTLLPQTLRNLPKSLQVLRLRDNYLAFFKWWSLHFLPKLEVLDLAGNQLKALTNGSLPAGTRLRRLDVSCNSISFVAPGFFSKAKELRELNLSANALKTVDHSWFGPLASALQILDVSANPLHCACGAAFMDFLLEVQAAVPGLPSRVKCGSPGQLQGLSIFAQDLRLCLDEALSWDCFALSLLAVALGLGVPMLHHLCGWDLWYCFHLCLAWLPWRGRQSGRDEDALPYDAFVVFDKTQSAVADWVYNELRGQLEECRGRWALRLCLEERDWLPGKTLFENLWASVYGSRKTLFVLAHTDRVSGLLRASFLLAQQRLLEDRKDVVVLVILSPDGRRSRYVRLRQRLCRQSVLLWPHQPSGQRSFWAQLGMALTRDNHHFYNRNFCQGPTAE
# Method in brief: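 HEK293 cells expressing TLR9 with an NF-κB-inducible SEAP reporter were preincubated with compound at 10 μM and 100 nM for 30 min at 37 °C, then stimulated with ODN2006. SEAP was read as OD 650 nm after 16-20 h, in triplicate.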
# TLR3 = target: T2, TLR3 (Homo sapiens, UniProt O15455); experiment: TLR3 antagonist screening, NF-κB-inducible SEAP reporter in HEK293 cells; format: cell-based; conditions: for Average % Inhibition at TLR3: 10 μM, stimulated with poly(I:C) at 1 μg/ml
# T2 construct: expressed in transfected cells; host or cells: HEK293
# T2 sequence (O15455 24-904, species assumed): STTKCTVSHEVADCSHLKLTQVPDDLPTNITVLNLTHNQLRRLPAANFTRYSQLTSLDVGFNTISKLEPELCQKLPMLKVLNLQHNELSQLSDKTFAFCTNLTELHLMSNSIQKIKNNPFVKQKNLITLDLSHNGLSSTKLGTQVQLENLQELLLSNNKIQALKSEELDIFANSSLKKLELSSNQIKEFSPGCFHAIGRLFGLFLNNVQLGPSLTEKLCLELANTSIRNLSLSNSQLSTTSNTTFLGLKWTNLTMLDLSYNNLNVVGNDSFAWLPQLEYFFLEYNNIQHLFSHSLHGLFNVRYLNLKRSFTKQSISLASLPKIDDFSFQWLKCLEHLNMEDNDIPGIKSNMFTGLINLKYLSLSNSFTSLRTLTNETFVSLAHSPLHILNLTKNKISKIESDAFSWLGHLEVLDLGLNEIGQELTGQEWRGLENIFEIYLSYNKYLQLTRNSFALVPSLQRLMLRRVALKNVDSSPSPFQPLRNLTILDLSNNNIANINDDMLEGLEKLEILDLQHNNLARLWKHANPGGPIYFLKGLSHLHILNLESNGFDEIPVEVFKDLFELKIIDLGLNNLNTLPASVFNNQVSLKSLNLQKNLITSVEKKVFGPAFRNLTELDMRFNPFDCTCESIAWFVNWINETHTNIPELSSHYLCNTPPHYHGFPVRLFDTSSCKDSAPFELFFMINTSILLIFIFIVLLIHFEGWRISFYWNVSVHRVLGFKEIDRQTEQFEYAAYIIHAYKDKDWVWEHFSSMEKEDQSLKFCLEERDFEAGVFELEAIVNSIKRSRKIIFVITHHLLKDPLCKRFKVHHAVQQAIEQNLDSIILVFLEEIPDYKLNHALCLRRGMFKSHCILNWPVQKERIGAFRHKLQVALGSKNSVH
# Procedure: Stimulation of TLRs 2, 3, 4, 5, 7, 8, and 9 was determined by assessing activation of the transcription factor NF-κB in HEK293 cells that were engineered to express the corresponding receptors. Assessment of TLR stimulation was based on the use of an NF-κB-inducible secreted alkaline phosphatase (SEAP) reporter system in which the SEAP reporter was under the control of a promoter inducible by NF-κB. Thus, the degree of activation of TLRs can be indirectly quantified spectrophotometrically by measuring the amount of the SEAP reporter that is produced.
# The appropriate TLR-expressing cells were plated in Growth Medium in a 96-well plate (25,000-50,000 cells/well). The cells were stimulated with the appropriate positive control ligand or no ligand was added (negative control). The positive control ligands were: HKLM was used to stimulate TLR2; poly(I:C) was used to stimulate TLR3; LPS was used to stimulate TLR4; Flagellin was used to stimulate TLR5; CL097 was used to stimulate TLR7; CL075 was used to stimulate TLR8; CpG oligodeoxynucleotide (ODN) 2006 was used to stimulate TLR9. To test whether (+)-morphinans could block that activation of the TLR, the cells were pretreated with an antagonist for 30 minutes prior to addition of the positive control ligand. For this, 20 μL of the stock test compound solution (100 μM in H2O) was added to give a total volume of 200 μL. […] After a 16-20 hr incubation period at 37° C. in a CO2 incubator, 20 μL of the cell culture supernatant was added to 180 μL of QUANTI-Blue™ Media (InvivoGen, San Diego, Calif.), and the resulting solutions were incubated at 37° C. for an additional 1-3 hours according to the manufacturer's instructions. The OD's of the samples were then read at 650 nm on a Beckman Coulter AD 340C Absorbance Detector.
Structure (SMILES),Protection from APAP-induced toxicity [2],Liver histology scores (necrosis and hemorrhage) [2],Serum alanine transaminase (ALT) levels [2],Average % Inhibition at TLR3 (TLR3) [%],further results
CN[C@@H]1CC[C@]2(O)[C@@H]3Cc4ccc(O)c5c4[C@]2(CCN3CC2CC2)[C@@H]1O5 [II-78],provided protection,reduced to about half,reduced significantly,–,"EAE clinical scores [1]: did not improve EAE; OD 650 nm (mean ± sd) (TLR9; 100 nM): 0.14 ± 0.02 OD; OD 650 nm (mean ± sd) (TLR9; 10 μM): 0.11 ± 0.01 OD; inhibition at 0.1 µM (TLR9; HEK293, read-out: % Inhibition (mean), 100 nM): 90%; inhibition at 10 µM (TLR9; HEK293, read-out: % Inhibition (mean), 10 μM): 92%"
"COc1ccc2c(c1O)[C@@]13CCN(C)[C@@H](C2)[C@H]1CC(OC)C(=O)C3 (stereo partly drawn) [Dihydrosinomenine, dihydrosinomenine]",–,–,–,40,–
"COC1=C[C@@H]2[C@@H]3Cc4ccc(OC)c(O)c4[C@]2(CCN3C)CC1=O [Sinomenine, sinomenine]",–,–,–,–,"inhibition at 10 µM (TLR3; HEK293, stimulated with poly(I:C) at 1 μg/ml): 28%"
"C=CCN1CC[C@]23c4c5ccc(O)c4O[C@H]2C(=O)CC[C@]3(O)[C@H]1C5 [(+)-Naloxone, (+)-naloxone]",essentially no protection,did not improve the histology scores,reduced the ALT levels,27,Protection from APAP-induced toxicity ([2]; listed as (+)-naloxone): did not affect acetaminophen-induced hepatotoxicity
